Results: US20120283334A1, “Treatment of Viral Infections” (Biocopea, Ltd., priority 2009, published 2012)

Test system: influenza (A/PR/8/34), H1N1 virus
Assay: In vivo mouse influenza challenge, bupropion metabolite by oral gavage
Conditions: H1N1-infected mice
Text: 6) In Vivo Mouse Studies Using Bupropion Metabolite
The bupropion metabolite known as 2-(1,1-dimethylethyl)amino-1-(3-chlorophenyl)propan-1-ol (BC1053), in 10% ethanol, was delivered orally to influenza infected mice, as follows.
Two groups of n=12 C57BLK/6 barrier reared female mice (6-8 weeks old, and between 15-18 g in weight) were intranasally challenged with a lethal dose of influenza (A/PR/8/34). On day 3 post-challenge, the animals received the following treatments: group A received an oral gavage of 100 μl of 10% Ethanol in water; and group B received an oral gavage of 100 μl containing 540 μg of bupropion metabolite in 10% Ethanol in water.
The animals were weighed and monitored daily for morbidity and mortality up to day 6, when all animals were culled. Average weight loss per group and survival were calculated.
As described above, mice were infected with a H1N1 virus which was allowed to become established in each of the subjects. Each test mouse was then treated with 2-(1,1-dimethylethyl)amino-1-(3-chlorophenyl)propan-1-ol (i.e. a bupropion metabolite, BC1053) with a single dose on day 3 after infection with the virus. In the control mice, no metabolite was administered. The weight loss of both treated and untreated mice was then determined.

Structure (SMILES): CC(NC(C)(C)C)C(O)c1cccc(Cl)c1 (centres unmarked) [BC1053, 2-(1,1-dimethylethyl)amino-1-(3-chlorophenyl)propan-1-ol]
- lower reduction in weight loss than the control mice (single oral dose 540 μg on day 3, FIG. 4): ≥ 30%
- higher survival rate than the control, untreated mice (single oral dose 540 μg on day 3, FIG. 5): about 30%
